Experimental findings from ChEMBL document CHEMBL3421538, “Structure-activity relationships and molecular studies of novel arylpiperazinylalkyl purine-2,4-diones and purine-2,4,8-triones with antidepressant and anxiolytic-like activity” (Eur J Med Chem, 2015) are described below.

Usually Ki stands for a measure of affinity in units of concentration, obtained from inhibition or displacement.

A value given as a limit tells only on which side of the number the result lay.

Experiment [1] has as its target 5-hydroxytryptamine receptor 7 (Homo sapiens, UniProt P34969). The experiment in a line: Displacement of [3H]LSD from human recombinant 5-HT7 receptor expressed in CHOK1 cells incubated for 60 mins by microbeta plate reader based method. The experiment is classed as cell-based, CHO-K1.
The target of a further experiment is D(2) dopamine receptor (Homo sapiens, UniProt P14416). Briefly: Displacement of [3H]N-methylspiperone from human recombinant dopamine D2 receptor expressed in CHOK1 cells incubated for 60 mins by microbeta plate reader based method. The experiment is classed as cell-based, CHO-K1. Background: Displacement assays read how much labelled ligand stays bound in the presence of the test substance.

A short description of experiment [2]: Selectivity index, ratio of Ki for rat hippocampus 5-HT1A receptor to Ki for human recombinant 5-HT7 receptor.
Experiment [3] deals with T1, 5-hydroxytryptamine receptor 1A (Rattus norvegicus) (UniProt P19327).
T1 sequence (whole entry): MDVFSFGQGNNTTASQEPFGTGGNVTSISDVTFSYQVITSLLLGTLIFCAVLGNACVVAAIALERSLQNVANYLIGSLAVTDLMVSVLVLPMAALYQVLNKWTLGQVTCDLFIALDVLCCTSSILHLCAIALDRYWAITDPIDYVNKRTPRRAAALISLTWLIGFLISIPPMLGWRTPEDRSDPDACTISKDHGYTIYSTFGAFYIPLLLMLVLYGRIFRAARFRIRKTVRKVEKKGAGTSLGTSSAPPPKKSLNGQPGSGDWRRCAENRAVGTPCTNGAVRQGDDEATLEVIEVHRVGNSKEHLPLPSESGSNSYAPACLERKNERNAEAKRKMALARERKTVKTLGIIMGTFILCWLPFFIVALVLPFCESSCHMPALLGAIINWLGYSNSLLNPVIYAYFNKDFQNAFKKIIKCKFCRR
The experiment in a line: Displacement of [3H]8-OH-DPAT from rat hippocampus 5-HT1A receptor assessed as total radioligand binding at 1 uM incubated for 20 mins by microbeta plate reader based method.

Experiment [4] addresses T1, 5-hydroxytryptamine receptor 1A (Rattus norvegicus). The experiment in a line: Displacement of [3H]8-OH-DPAT from rat hippocampus 5-HT1A receptor assessed as total radioligand binding at 1.66 x 10^-7 M incubated for 20 mins by microbeta plate reader based method.
Experiment [5] concerns the target T2, 5-hydroxytryptamine receptor 6 (Homo sapiens, UniProt P50406). Briefly: Displacement of [3H]LSD from human recombinant 5-HT6 receptor expressed in HEK293 cells assessed as total radioligand binding at 1 uM incubated for 60 mins by microbeta plate reader based method. The experiment is classed as cell-based.
For experiment [6], the target named is T2, 5-hydroxytryptamine receptor 6. The experiment in a line: Displacement of [3H]LSD from human recombinant 5-HT6 receptor expressed in HEK293 cells assessed as total radioligand binding at 1.66 x 10^-7 M incubated for 60 mins by microbeta plate reader based method. The experiment is classed as cell-based.
For experiment [7], the target named is D(3) dopamine receptor (Homo sapiens) (UniProt P35462). The experiment in a line: Displacement of [3H]N-methylspiperone from dopamine D3 receptor (unknown origin) assessed as total radioligand binding at 1 uM incubated for 60 mins by microbeta plate reader based method.
Experiment [8] shares this target. Briefly: Displacement of [3H]N-methylspiperone from dopamine D3 receptor (unknown origin) assessed as total radioligand binding at 1.66 x 10^-7 M incubated for 60 mins by microbeta plate reader based method.
For experiment [9], the target named is T3, 5-hydroxytryptamine receptor 1A (Rattus norvegicus, UniProt P19327).
T3 sequence (P19327 whole entry): T1 sequence (whole entry)
The experiment in a line: Displacement of [3H]8-OH-DPAT from rat hippocampus 5-HT1A receptor incubated for 20 mins by microbeta plate reader based method.

For experiment [10], the system named is Mus musculus. The experiment in a line: Anxiolytic-like activity in Swiss mouse assessed as increase in number of punished crossings measured during 60 seconds period at 5 mg/kg, ip by four-plate test. To be noted: route intraperitoneal. The experiment is classed as functional.
The subject of experiment [11] is Mus musculus. The experiment in a line: Anxiolytic-like activity in Swiss mouse assessed as increase in number of punished crossings measured during 60 seconds period at 2.5 mg/kg, ip by four-plate test. The experiment is classed as functional. To be noted: route intraperitoneal.
Experiment [12] concerns the target T2, 5-hydroxytryptamine receptor 6. Briefly: Displacement of [3H]LSD from human recombinant 5-HT6 receptor expressed in HEK293 cells incubated for 60 mins by microbeta plate reader based method. The experiment is classed as cell-based.

Sequence of D(3) dopamine receptor (Homo sapiens) (P35462 whole entry): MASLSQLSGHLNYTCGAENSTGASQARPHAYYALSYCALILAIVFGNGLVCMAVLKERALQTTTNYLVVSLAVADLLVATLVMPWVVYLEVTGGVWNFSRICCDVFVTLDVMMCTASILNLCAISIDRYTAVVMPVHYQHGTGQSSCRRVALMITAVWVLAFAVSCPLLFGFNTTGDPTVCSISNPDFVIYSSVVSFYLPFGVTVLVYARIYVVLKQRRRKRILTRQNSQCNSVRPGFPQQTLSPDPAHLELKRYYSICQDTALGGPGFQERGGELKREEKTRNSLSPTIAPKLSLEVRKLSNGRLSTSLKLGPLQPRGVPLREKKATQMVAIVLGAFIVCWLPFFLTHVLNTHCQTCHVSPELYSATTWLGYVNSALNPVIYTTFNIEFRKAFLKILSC
Sequence of D(2) dopamine receptor (P14416 whole entry): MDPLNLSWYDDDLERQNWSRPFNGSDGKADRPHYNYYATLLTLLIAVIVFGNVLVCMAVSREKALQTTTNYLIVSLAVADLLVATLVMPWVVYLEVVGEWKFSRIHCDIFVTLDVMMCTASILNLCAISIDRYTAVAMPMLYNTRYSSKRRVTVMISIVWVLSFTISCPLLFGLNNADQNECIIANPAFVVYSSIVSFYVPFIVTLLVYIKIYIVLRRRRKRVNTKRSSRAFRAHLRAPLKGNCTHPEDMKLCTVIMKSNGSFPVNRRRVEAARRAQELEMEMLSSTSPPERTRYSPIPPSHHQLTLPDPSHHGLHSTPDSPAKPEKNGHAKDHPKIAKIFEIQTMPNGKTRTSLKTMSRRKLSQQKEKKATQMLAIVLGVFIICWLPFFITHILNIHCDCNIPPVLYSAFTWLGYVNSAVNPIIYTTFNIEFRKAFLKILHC
T2 sequence (P50406 whole entry): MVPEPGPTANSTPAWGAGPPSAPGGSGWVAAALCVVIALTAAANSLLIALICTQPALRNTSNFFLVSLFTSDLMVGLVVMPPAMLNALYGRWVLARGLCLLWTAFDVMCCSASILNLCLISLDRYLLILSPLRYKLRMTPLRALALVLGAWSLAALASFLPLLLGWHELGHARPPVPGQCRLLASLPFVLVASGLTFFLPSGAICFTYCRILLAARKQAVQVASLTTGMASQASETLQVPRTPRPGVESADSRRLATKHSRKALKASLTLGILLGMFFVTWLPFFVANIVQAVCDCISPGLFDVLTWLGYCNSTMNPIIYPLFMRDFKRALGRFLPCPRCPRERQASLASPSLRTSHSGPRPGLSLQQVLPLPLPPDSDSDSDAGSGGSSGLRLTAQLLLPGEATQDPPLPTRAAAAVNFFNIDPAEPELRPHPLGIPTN
Sequence of 5-hydroxytryptamine receptor 7 (P34969 whole entry): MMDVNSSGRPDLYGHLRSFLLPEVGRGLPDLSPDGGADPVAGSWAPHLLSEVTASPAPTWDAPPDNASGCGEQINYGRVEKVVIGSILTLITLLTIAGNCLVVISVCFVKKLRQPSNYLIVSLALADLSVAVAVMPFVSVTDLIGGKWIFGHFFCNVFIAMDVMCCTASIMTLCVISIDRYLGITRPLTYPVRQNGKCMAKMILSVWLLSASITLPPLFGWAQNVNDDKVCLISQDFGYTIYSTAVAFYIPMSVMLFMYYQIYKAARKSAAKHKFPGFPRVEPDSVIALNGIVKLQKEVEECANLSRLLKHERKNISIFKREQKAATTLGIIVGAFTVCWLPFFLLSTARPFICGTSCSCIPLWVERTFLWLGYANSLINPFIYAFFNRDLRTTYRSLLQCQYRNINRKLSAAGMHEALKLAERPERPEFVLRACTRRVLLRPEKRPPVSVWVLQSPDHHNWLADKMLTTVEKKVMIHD

With `Cc1cn2c3c(=O)n(C)c(=O)n(C)c3nc2n1CCCCCN1CCN(c2ccccc2O)CC1`, the Ki in [1] came out at 124 nM; on D(2) dopamine receptor, 468 nM; in experiment [9] it was 12 nM. Also, the Ratio Ki in experiment [2] was 0.1. Besides, the Activity worked out at 0% in experiment [3]; 52% in [4]; 77% in experiment [5]; 84% in experiment [6]; 71% in experiment [7]; 85% in experiment [8].

As for `Cn1c(=O)c2c(nc3n(CCCCN4CCN(c5ccc(Cl)c(Cl)c5)CC4)c(=O)ccn23)n(C)c1=O`, the Activity in experiment [3] was found to be 84%; in experiment [4], 97%; in experiment [5], 67%; in [6] it was 100%; in [7], 98%; in experiment [8], 99%.

With `CN1C(=O)CN=C(c2ccccc2)c2cc(Cl)ccc21` [DIAZEPAM], the Activity with Mus musculus [10] is given as 57%; with Mus musculus [11], 52%.

On to `Cc1cn2c3c(=O)n(C)c(=O)n(C)c3nc2n1CCCCN1CCN(c2ccc(Cl)c(Cl)c2)CC1`, for which the Activity in experiment [3] turned out to be 13%; in [4], 74%; in [5], 46%; in [6], 110%; in experiment [7] it was 64%; in [8], 90%.

For `Cn1c(=O)c2c(nc3n(CCCCN4CCN(c5ccccc5O)CC4)ccn23)n(C)c1=O`, the figures for the Ki (in experiment [1]; on D(2) dopamine receptor; in [9]) were 1360 nM, 700 nM and 2 nM, respectively. For the same molecule, the Ratio Ki in [2] came out at 0.002. For the same molecule, the Activity in [3] came to 7%; in experiment [4], 40%; in experiment [5], 90%; in [6], 99%; in [7], 69%; in experiment [8], 67%.

Turning to `Cn1c(=O)c2c(nc3n(CCCCCN4CCN(c5ccc(Cl)cc5)CC4)c(=O)ccn23)n(C)c1=O`, the Ki in [1] is greater than 1000 nM; at D(2) dopamine receptor, 215 nM; in [12], 839 nM; in experiment [9], 80 nM. The Activity stood at 92% in experiment [7] and 99% in [8].

With `Cc1cn2c3c(=O)n(C)c(=O)n(C)c3nc2n1CCCCN1CCN(c2ccc(Cl)cc2)CC1`, the Ki came to 361 nM in experiment [1], 123 nM on D(2) dopamine receptor, 1460 nM in experiment [12] and 38 nM in [9]. The Ratio Ki in experiment [2] turned out to be 0.1.

With `Cc1cc2c(s1)Nc1ccccc1N=C2N1CCN(C)CC1`, the Activity in experiment [7] is 10%; in experiment [8], 24%.

`Cc1cccc(N2CCN(CCCCn3ccn4c5c(=O)n(C)c(=O)n(C)c5nc34)CC2)c1C`: the Activity in [3] worked out at 9%; in [4] it was 48%; in experiment [5], 62%; in [6] it was 91%; in experiment [7], 13%; in experiment [8], 47%.

`Cn1c(=O)c2c(nc3n(CCCCN4CCN(c5ccc(Cl)cc5)CC4)c(=O)ccn23)n(C)c1=O`: the Ki in experiment [1] stood at 61 nM; on D(2) dopamine receptor it was 68 nM; in experiment [12], 86 nM; in experiment [9] it was 58 nM. Further, the figures for the Activity in experiment [7] and in [8] were 52% and 96%, respectively.

In the case of `CSc1ccc2c(c1)C(N1CCN(C)CC1)Cc1ccccc1S2` (stereo not given), the figures for the Activity in experiment [5] and in experiment [6] were 1% and 3%, respectively.

With `CC[C@@H](CO)NC(=O)[C@@H]1C=C2c3cccc4c3c(cn4C)C[C@H]2N(C)C1`, the Activity in experiment [3] is 11%; in experiment [4], 18%.

`Cc1cccc(N2CCN(CCCCn3c(=O)ccn4c5c(=O)n(C)c(=O)n(C)c5nc34)CC2)c1C`: the Activity is 42% in experiment [3]; 85% in experiment [4]; 94% in [5]; 100% in [6]; 73% in experiment [7]; 100% in experiment [8].

As for `Cc1cccc(N2CCN(CCCCCn3c(=O)ccn4c5c(=O)n(C)c(=O)n(C)c5nc34)CC2)c1C`, the Activity in [3] worked out at 50%; in experiment [4] it was 88%; in experiment [5], 59%; in experiment [6], 85%; in [7], 67%; in [8], 83%.

With `Cc1cn2c3c(=O)n(C)c(=O)n(C)c3nc2n1CCCCN1CCN(c2ccccc2O)CC1`, the figures for the Ki (in [1]; on D(2) dopamine receptor; in [9]) were 510 nM, 430 nM and 2 nM, respectively. Besides, the Ratio Ki in experiment [2] is 0.003. In addition, the Activity was 8% in [3]; 44% in experiment [4]; 90% in experiment [5]; 90% in [6]; 67% in experiment [7]; 86% in [8].

Consider `Cn1c(=O)c2c(nc3n(CCCCCN4CCN(c5ccc(Cl)cc5)CC4)ccn23)n(C)c1=O`, for which the Ki in experiment [1] worked out at 3640 nM; at D(2) dopamine receptor, 259 nM; in experiment [12] it was 1590 nM; in [9] it was 73 nM. For the same molecule, the Ratio Ki in [2] amounted to 0.02.

`Cn1c(=O)c2c(nc3n(CCCCN4CCN(c5ccc(Cl)c(Cl)c5)CC4)ccn23)n(C)c1=O`: the Activity came to 9% in experiment [3]; 51% in experiment [4]; 67% in [5]; 91% in [6]; 0% in [7]; 31% in experiment [8].

With `Cn1c(=O)c2c(nc3n(CCCCCN4CCN(c5ccccc5O)CC4)ccn23)n(C)c1=O`, the Ki in experiment [1] worked out at 230 nM; on D(2) dopamine receptor it was 265 nM; in experiment [9], 7 nM. Besides, in experiment [2], the Ratio Ki amounted to 0.03. Further, the Activity in experiment [3] was determined as 0%; in experiment [4], 57%; in experiment [5] it was 67%; in experiment [6] it was 76%; in experiment [7] it was 3%; in experiment [8], 69%.

For the molecule `Cn1c(=O)c2c(nc3n(CCCCN4CCN(c5ccc(Cl)cc5)CC4)c(-c4ccccc4)cn23)n(C)c1=O`, the Ki worked out at 37 nM in [1], 23 nM on D(2) dopamine receptor, 447 nM in experiment [12] and 46 nM in experiment [9]. Besides, the Ratio Ki in experiment [2] turned out to be 1.2.

With `Cn1c(=O)c2c(nc3n(CCCCCN4CCN(c5ccc(Cl)c(Cl)c5)CC4)c(=O)ccn23)n(C)c1=O`, the Activity in experiment [3] stood at 52%; in [4], 86%; in experiment [5], 79%; in experiment [6], 100%; in experiment [7] it was 61%; in experiment [8] it was 96%.

Regarding `Cn1c(=O)c2c(nc3n(CCCCCN4CCN(c5ccc(Cl)c(Cl)c5)CC4)ccn23)n(C)c1=O`, the Activity in experiment [3] was 3%; in experiment [4], 78%; in experiment [5] it was 62%; in experiment [6], 90%; in experiment [7], 16%; in experiment [8], 67%.

Consider `Cn1c(=O)c2c(nc3n(CCCCCN4CCN(c5ccccc5O)CC4)c(=O)ccn23)n(C)c1=O`, for which the Ki was 473 nM in experiment [1], 340 nM on D(2) dopamine receptor, greater than 1000 nM in experiment [12] and 2 nM in experiment [9]. In addition, the Activity in [7] came to 46%; in [8], 67%.

Turning to `Cc1cn2c3c(=O)n(C)c(=O)n(C)c3nc2n1CCCCCN1CCN(c2ccc(Cl)cc2)CC1`, the Ki in experiment [1] was 691 nM; on D(2) dopamine receptor, 106 nM; in [12] it was 837 nM; in [9] it was 62 nM. Moreover, the Ratio Ki in [2] amounted to 0.09.

As to `Cn1c(=O)c2c(nc3n(CCCCN4CCN(c5ccccc5O)CC4)c(=O)ccn23)n(C)c1=O`, the Activity came to 79% in experiment [3]; 97% in experiment [4]; 100% in experiment [5]; 100% in experiment [6]; 26% in [7]; 84% in [8].
